Measured values: patent US7645738B2, “18-membered nitrobenzyl- and aminobenzyl-substituted cyclohexadepsipeptides for controlling endoparasites and a process for their preparation” (Bayer Animal Health GmbH, priority 2003, dated 2010)

How the values were obtained:
[1] = test system: Trichostrongylus colubriformis; experiment: In vivo nematode test Trichostrongylus colubriformis/sheep; details: sheep experimentally infected with Trichostrongylus colubriformis; applied orally and/or intravenously as pure active compound; complete cessation of egg excretion after treatment
Protocol: Trichostrongylus colubriformis/sheep
Sheep which had been experimentally infected with Trichostrongylus colubriformis were treated after the prepotency time of the parasite had elapsed. The active compounds were applied orally and/or intravenously as pure active compound.
(§1) The degree of effectiveness is determined by quantitatively counting the worm eggs which have been excreted with the faeces before and after the treatment.
(§2) A complete cessation of egg excretion after the treatment means that the worms have been aborted or damaged to such an extent that they no longer produce eggs (dosis effectiva).
(§3) Active compounds tested and effective dosage rates (dosis effectiva) can be seen from the table which follows.

[2] = log P value from HPLC; assay type: physicochemical; details: 0.1% phosphoric acid/acetonitrile gradient
Protocol: HPLC (0.1% phosphoric acid/acetonitrile; gradient: 90/10 (1) 5%/min, 5/95 (6); flow rate: 1.5 mil/min; UV: 210 nm): Rt=12.57 min; log P value 3.58.

[3] = test system: Haemonchus contortus; experiment: In vivo nematode test Haemonchus contortus/sheep; details: sheep experimentally infected with Haemonchus contortus; applied orally and/or intravenously as pure active compound; complete cessation of egg excretion after treatment
Protocol: Haemonchus contortus/sheep
Sheep which had been experimentally infected with Haemonchus contortus were treated after the prepotency time of the parasite had elapsed. The active compounds were applied orally and/or intravenously as pure active compound.
as §1, §2, §3

Structure (SMILES) | Effective dosage (dosis effectiva) [1] [mg/kg] | chromatographic logP [2] | Effective dosage (dosis effectiva) [3] [mg/kg] | melting point [°C]
CCC(C)[C@H]1C(=O)O[C@H](Cc2ccc(N3CCOCC3)cc2)C(=O)N(C)[C@@H](C(C)CC)C(=O)O[C@H](C)C(=O)N(C)[C@@H](C)C(=O)O[C@H](C)C(=O)N1C (stereo partly drawn) [Example I-1, Cyclo(-N-methyl-L-alanyl-D-lactyl-N-methyl-L-isoleucyl-D-4-morpholino-phenyllactyl-N-methyl-L-isoleucyl-D-lactyl-)] | 0.25 | 3.58 | 0.10 | –
CCC(C)[C@H]1C(=O)O[C@H](Cc2ccc(NCCS(=O)(=O)CCO)cc2)C(=O)N(C)[C@@H](C(C)CC)C(=O)O[C@H](C)C(=O)N(C)[C@@H](C)C(=O)O[C@H](C)C(=O)N1C (stereo partly drawn) [Example I-2, Cyclo(-N-methyl-L-alanyl-D-lactyl-N-methyl-L-isoleucyl-D-4-(2-hydroxyethyl-sulphonyl-ethylamino-phenyl)lactyl-N-methyl-L-isoleucyl-D-lactyl-)] | – | – | 0.10 | –
CCC(C)[C@H]1C(=O)O[C@H](Cc2ccccc2)C(=O)N(C)[C@@H](C(C)CC)C(=O)O[C@H](C)C(=O)N(C)[C@@H](C)C(=O)O[C@H](C)C(=O)N1C (stereo partly drawn) [Example II-1, Cyclo(-N-methyl-L-alanyl-D-lactyl-N-methyl-L-isoleucyl-D-phenyllactyl-N-methyl-L-isoleucyl-D-lactyl-)] | – | 4.23 | – | –
CCC(C)[C@H]1C(=O)O[C@H](Cc2ccc([N+](=O)[O-])cc2)C(=O)N(C)[C@@H](C(C)CC)C(=O)O[C@H](C)C(=O)N(C)[C@@H](C)C(=O)O[C@H](C)C(=O)N1C (stereo partly drawn) [Example III-1, Cyclo(-N-methyl-L-alanyl-D-lactyl-N-methyl-L-isoleucyl-D-4-nitro-phenyllactyl-N-methyl-L-isoleucyl-D-lactyl-)] | – | – | – | 122 to 126
CCC(C)C1C(=O)OC(Cc2ccccc2N)C(=O)N(C)C(C(C)CC)C(=O)OC(C)C(=O)N(C)C(C)C(=O)OC(C)C(=O)N1C [Example IV-1, Cyclo(-N-methyl-L-alanyl-D-lactyl-N-methyl-L-isoleucyl-D-2-amino-phenyllactyl-N-methyl-L-isoleucyl-D-lactyl-)] | – | – | 0.05 | –
CC[C@H](C)[C@H]1C(=O)O[C@H](Cc2cccc(N)c2)C(=O)N(C)[C@@H]([C@@H](C)CC)C(=O)O[C@H](C)C(=O)N(C)[C@@H](C)C(=O)O[C@H](C)C(=O)N1C [Example IV-2, Cyclo(-N-methyl-L-alanyl-D-lactyl-N-methyl-L-isoleucyl-D-3-amino-phenyllactyl-N-methyl-L-isoleucyl-D-lactyl-)] | 0.25 | – | 0.05 | –
